# Test results reported in patent publication US20260274892A1, “MACROCYCLIC BROAD SPECTRUM ANTIBIOTICS” (RQx Pharmaceuticals, Inc., priority 2017, published 2026).
# System: Escherichia coli ATCC 25922
# Test: Minimum inhibitory concentration (MIC), CLSI broth micro-dilution, E. coli
# Type: cell-based
# Details: Escherichia coli, ATCC25922, 22 h, Table 6, cation adjusted Mueller Hinton Broth + 0.002% Tween-80, 35° C.
# Outline: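 Colonies grown 20 h at 35° C on Trypticase Soy agar (MRSA) or Luria agar (E. coli) were suspended in cation-adjusted Mueller Hinton broth with 0.002% Tween-80. Suspensions were added at OD600 0.0005 to 10-point twofold compound dilutions, then incubated 22 h at 35° C.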
row,Compound,MIC
1,"Cc1nc(N2CCC(OCCC(C)(C)C)CC2)nc(C)c1C(=O)N[C@@H](CCN)C(=O)N(C)[C@@H]1C(=O)N[C@@H](C)C(=O)N[C@H](C(=O)NCC#N)Cc2ccc(OCCN)c(c2)-c2cc1ccc2OCCN (racemic) [Compound 527, rac-(8S,11S,14S)-3,18-bis(2-aminoethoxy)-N-(cyanomethyl)-11-methyl-14-[methyl-[rac-(2S)-4-amino-2-[[2-[4-(3,3-dimethylbutoxy)-1-piperidyl]-4,6-dimethyl-pyrimidine-5-carbonyl]amino]butanoyl]amino]-10,13-dioxo-9,12-diazatricyclo[13.3.1.12,6]icosa-1(18),2(20),3,5,15(19),16-hexaene-8-carboxamide]",0.38 µM
2,"Cc1nc(-c2ccc(OCCC(C)(C)C)cc2)nc(C)c1C(=O)N[C@@H](CCN)C(=O)N(C)[C@@H]1C(=O)N[C@@H](C)C(=O)N[C@H](C(=O)NCC#N)Cc2ccc(OCCN)c(c2)-c2cc1ccc2O (racemic) [Compound 528, rac-(8S,11S,14S)-3-(2-aminoethoxy)-N-(cyanomethyl)-18-hydroxy-11-methyl-14-[methyl-[rac-(2S)-4-amino-2-[[2-[4-(3,3-dimethylbutoxy)phenyl]-4,6-dimethyl-pyrimidine-5-carbonyl]amino]butanoyl]amino]-10,13-dioxo-9,12-diazatricyclo[13.3.1.12,6]icosa-1(18),2(20),3,5,15(19),16-hexaene-8-carboxamide]",0.063 µM

# The remaining lines, values ahead:
row,MIC,Compound
1,0.13 µM,"Cc1nc(-c2ccc(OC3CCCCC3)cc2)nc(C)c1C(=O)N[C@@H](CCN)C(=O)N[C@@H]1C(=O)N[C@@H](C)C(=O)N[C@H](C(=O)NCC#N)Cc2ccc(OCCN)c(c2)-c2cc1ccc2OCCN (racemic) [Compound 519, rac-(8S,11S,14S)-3,18-bis(2-aminoethoxy)-N-(cyanomethyl)-11-methyl-10,13-dioxo-14-[[rac-(2S)-4-amino-2-[[2-[4-(cyclohexoxy)phenyl]-4,6-dimethyl-pyrimidine-5-carbonyl]amino]butanoyl]amino]-9,12-diazatricyclo[13.3.1.12,6]icosa-1(18),2(20),3,5,15(19),16-hexaene-8-carboxamide]"
2,1 µM,"C[C@@H]1NC(=O)[C@@H](N(C)C(=O)[C@H](CCN)NC(=O)c2c(N)cc(-c3ccc(C(C)(C)C)cc3)nc2N)c2ccc(OCCN)c(c2)-c2cc(ccc2OCCN)C[C@@H](C(=O)NCC#N)NC1=O (racemic) [Compound 520, rac-(8S,11S,14S)-3,18-bis(2-aminoethoxy)-N-(cyanomethyl)-11-methyl-14-[methyl-[rac-(2S)-4-amino-2-[[2,4-diamino-6-(4-tert-butylphenyl)pyridine-3-carbonyl]amino]butanoyl]amino]-10,13-dioxo-9,12-diazatricyclo[13.3.1.12,6]icosa-1(18),2(20),3,5,15(19),16-hexaene-8-carboxamide]"
3,0.13 µM,"Cc1nc(-c2ccc(OC3CCCCC3)cc2)nc(C)c1C(=O)N[C@@H](CCN)C(=O)N(C)[C@@H]1C(=O)N[C@@H](C)C(=O)N[C@H](C(=O)NCC#N)Cc2ccc(OCCN)c(c2)-c2cc1ccc2O (racemic) [Compound 522, rac-(8S,11S,14S)-3-(2-aminoethoxy)-N-(cyanomethyl)-18-hydroxy-11-methyl-14-[methyl-[rac-(2S)-4-amino-2-[[2-[4-(cyclohexoxy)phenyl]-4,6-dimethyl-pyrimidine-5-carbonyl]amino]butanoyl]amino]-10,13-dioxo-9,12-diazatricyclo[13.3.1.12,6]icosa-1(18),2(20),3,5,15(19),16-hexaene-8-carboxamide]"
